From US11014917B2, “5-fluoro-c-(aryl or heterocyclyl)-glycoside derivatives useful as dual SGLT1 / SGLT2 modulators” (Janssen Pharmaceutica NV, priority 2017, dated 2021)
pIC50: −log10 of the molar value.

Assays:
human SGLT2 = molecular target: T1, human SGLT2 (Homo sapiens, UniProt P31639); assay: SGLT2 assay: Na-dependent 14C-AMG uptake in CHO-K1 cells stably expressing human SGLT2; assay type: cell-based; settings: for SGLT2 %-inhibition: @ 0.3 μM; for pIC50: average if tested more than once
T1 construct: expressed in transfected cells
T1 sequence (P31639 1-672): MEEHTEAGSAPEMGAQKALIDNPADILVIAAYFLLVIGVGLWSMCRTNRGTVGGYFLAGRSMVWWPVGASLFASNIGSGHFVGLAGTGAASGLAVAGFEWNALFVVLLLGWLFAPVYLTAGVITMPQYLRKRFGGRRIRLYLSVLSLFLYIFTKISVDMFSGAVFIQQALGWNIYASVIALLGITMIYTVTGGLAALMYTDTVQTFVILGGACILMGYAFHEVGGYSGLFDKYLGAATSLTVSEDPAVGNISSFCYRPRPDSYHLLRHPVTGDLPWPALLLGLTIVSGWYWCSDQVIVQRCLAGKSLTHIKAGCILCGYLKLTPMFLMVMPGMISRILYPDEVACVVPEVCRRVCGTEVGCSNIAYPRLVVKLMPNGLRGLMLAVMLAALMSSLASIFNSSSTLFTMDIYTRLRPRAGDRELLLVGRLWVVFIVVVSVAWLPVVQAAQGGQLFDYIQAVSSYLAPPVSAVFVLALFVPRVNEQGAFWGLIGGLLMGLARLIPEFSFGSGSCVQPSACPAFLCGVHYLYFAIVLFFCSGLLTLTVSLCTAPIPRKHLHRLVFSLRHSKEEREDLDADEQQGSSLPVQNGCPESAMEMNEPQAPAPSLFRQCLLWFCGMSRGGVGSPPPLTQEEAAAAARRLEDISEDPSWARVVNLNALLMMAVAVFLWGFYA
Summary of the method: (§1)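 Stable CHO-K1 lines were pretreated 24 h with 10 mM Na-butyrate, then compound (0.001–10 μM) for 10 min in Na+ buffer (137 mM NaCl, pH 7.4). Uptake of 14C-AMG (500 μM final, 0.07 μCi/well) over 2 h at 37° C measured by scintillation; %-inhibition or IC50.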

human SGLT1 = molecular target: T2, human SGLT1 (Homo sapiens, UniProt P13866); assay: SGLT1 assay: Na-dependent 14C-AMG uptake in CHO-K1 cells stably expressing human SGLT1; assay type: cell-based; settings: for SGLT1 %-inhibition: @ 0.3 μM; for pIC50: average if tested more than once
T2 construct: expressed in transfected cells
T2 sequence (P13866 1-664): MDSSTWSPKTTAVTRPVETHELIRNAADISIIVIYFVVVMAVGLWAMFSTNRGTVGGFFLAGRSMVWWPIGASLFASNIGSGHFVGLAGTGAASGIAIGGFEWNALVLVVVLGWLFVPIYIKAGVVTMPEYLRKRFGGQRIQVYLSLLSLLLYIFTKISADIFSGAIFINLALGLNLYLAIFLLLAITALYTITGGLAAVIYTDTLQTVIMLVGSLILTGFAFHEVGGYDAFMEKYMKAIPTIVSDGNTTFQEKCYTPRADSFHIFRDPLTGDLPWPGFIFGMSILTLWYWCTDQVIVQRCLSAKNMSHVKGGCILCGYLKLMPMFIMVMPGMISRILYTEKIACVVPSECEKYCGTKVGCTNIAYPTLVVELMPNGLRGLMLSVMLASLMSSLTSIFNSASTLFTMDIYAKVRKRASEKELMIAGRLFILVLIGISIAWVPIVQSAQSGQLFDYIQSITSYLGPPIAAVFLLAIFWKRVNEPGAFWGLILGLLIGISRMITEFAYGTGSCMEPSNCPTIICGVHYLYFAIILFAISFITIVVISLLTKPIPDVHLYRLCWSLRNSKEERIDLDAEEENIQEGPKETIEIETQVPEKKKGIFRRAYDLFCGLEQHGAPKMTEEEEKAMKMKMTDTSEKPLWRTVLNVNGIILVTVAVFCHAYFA
Summary of the method: as §1

| SMILES | SGLT2 %-inhibition (human SGLT2) [% @ 0.3 μM] | SGLT1 %-inhibition (human SGLT1) [% @ 0.3 μM] | pIC50 (human SGLT2) | pIC50 (human SGLT1) |
| --- | --- | --- | --- | --- |
| OC[C@H]1O[C@@H](c2cc(Cc3ccc4c(c3)SCCO4)c(Cl)c3c2OCC3)[C@H](O)[C@@H](O)[C@@H]1F [Compound 127] | 78.4 | 63.2 | – | – |
| [2H]C([2H])(c1ccc2c(c1)OCCO2)c1cc([C@@H]2O[C@H](CO)[C@@H](F)[C@H](O)[C@H]2O)c(OC)c2c1OCC2 [Compound 163, (2S,3R,4R,5S,6R)-2-[7-[dideuterio(2,3-dihydro-1,4-benzodioxin-6-yl)methyl]-4-methoxy-2,3-dihydrobenzofuran-5-yl]-5-fluoro-6-(hydroxymethyl)tetrahydropyran-3,4-diol] | – | – | 8.10 | 7.30 |
| [2H]C1([2H])Oc2ccc(Cc3cc([C@@H]4O[C@H](CO)[C@@H](F)[C@H](O)[C@H]4O)c4c(c3CC)CCO4)cc2OC1([2H])[2H] [Compound 179] | – | – | 7.82 | 7.22 |
| O=C1COc2cc(Cc3cc([C@@H]4O[C@H](CO)[C@@H](F)[C@H](O)[C@H]4O)cc4c3OCC4)ccc2N1 [Compound 97] | 67.9 | 31.2 | – | – |
| COc1c([C@@H]2O[C@H](CO)[C@@H](F)[C@H](O)[C@H]2O)cc(Cc2ccc(OCF)cc2)c2c1CCO2 [Compound 142] | 85.8 | 59.8 | – | – |
| CCc1cc(O)c([C@@H]2O[C@H](CO)[C@@H](F)[C@H](O)[C@H]2O)cc1Cc1cc2c(s1)CCN(C#N)C2 [Compound 118] | – | – | 8.70 | 7.30 |
| Cc1c(Cc2ccc3c(c2)SCCO3)cc([C@@H]2O[C@H](CO)[C@@H](F)[C@H](O)[C@H]2O)c2c1CCO2 [Compound 132] | – | – | 7.64 | 6.87 |
| [2H]C([2H])(c1ccc2c(c1)OCCO2)c1cc([C@@H]2O[C@H](CO)[C@@H](F)[C@H](O)[C@H]2O)ccc1CC [Compound 157] | 61.9 | 47.7 | – | – |
| CCc1ccc([C@@H]2O[C@H](CO)[C@@H](F)[C@H](O)[C@H]2O)cc1Cc1ccc2c(c1)OC(F)(F)O2 [Compound 159] | 0.0 | 6.0 | – | – |
| Cc1c([C@@H]2O[C@H](CO)[C@@H](F)[C@H](O)[C@H]2O)cc(Cc2ccc3c(c2)SCCO3)c2c1CCO2 [Compound 131] | – | – | 7.92 | 6.64 |
| COC(=O)N1CCc2sc(Cc3cc([C@@H]4O[C@H](CO)[C@@H](F)[C@H](O)[C@H]4O)ccc3Cl)cc2C1 [Compound 80] | 60.4 | 37.4 | – | – |
| COc1cc(O)c(C2OC(C(C)O)C(F)C(O)C2O)cc1Cc1cc2ccccc2s1 (single isomer, unassigned) [Compound 52] | – | – | 8.05 | 7.82 |
| OC[C@H]1O[C@@H](c2cc3c(c(Cc4ccc5c(c4)OCCO5)c2)OCC3)[C@H](O)[C@@H](O)[C@@H]1F [Compound 54] | – | – | 7.96 | 7.16 |
| COc1cc(OC)c(C2OC(C(C)O)C(F)C(O)C2O)cc1Cc1cc2ccccc2s1 (single isomer, unassigned) [Compound 72] | – | – | 7.62 | 6.90 |
| Cc1cc(O)c([C@@H]2O[C@H](CO)[C@@H](F)[C@H](O)[C@H]2O)cc1Cc1cc2ccccc2s1 [Compound 4] | – | – | 8.40 | 7.85 |
| COc1c([C@@H]2O[C@H](CO)[C@@H](F)[C@H](O)[C@H]2O)cc(Cc2ccc3c(c2)N(C)CCC3)c2c1CCO2 [Compound 108, (2S,3R,4R,5S,6R)-5-fluoro-6-(hydroxymethyl)-2-(4-methoxy-7-((1-methyl-1,2,3,4-tetrahydroquinolin-7-yl)methyl)-2,3-dihydrobenzofuran-5-yl)-tetrahydro-2H-pyran-3,4-diol] | – | – | 7.12 | 6.49 |
| CCc1ccc([C@@H]2O[C@H](CO)[C@@H](F)[C@H](O)[C@H]2O)cc1Cc1ccc2c(c1)OC(F)(F)O2 [Compound 158] | 18.0 | 2.6 | – | – |
